From article PMC12441861, “Next-Generation Lipid Prodrugs Orally Deliver Tenofovir via Enhanced Chylomicron Incorporation” (ACS Pharmacology & Translational Science, 2025)
Like-named read-outs stand apart in the source and are kept apart here.

Columns and labels:
[1] = Metabolic stability in human liver microsomes; format: in vitro ADME; conditions: pH 7.4, read-out: Metabolic Stability HLM t1/2
Experimental: Assays employed human liver microsomes (HLMs, 20 mg/mL) from Xenotech. A 10 mM NADPH stock was prepared in deionized H2O, and test compounds were dissolved in 100% MeOH to a final concentration of 10 mM. The stock solutions were diluted to 500 μM in 100 mM potassium phosphate buffer (pH 7.4), keeping the final MeOH concentration below 0.2%. Reaction mixtures were prepared by combining 928 μL phosphate buffer, 55 μL liver microsomes, and the test compound solution to a final concentration of 3 μM. Verapamil was used as a positive control. The reactions were initiated with the addition of 110 μL of 10 mM NADPH. Aliquots were taken in duplicate at 0, 5, 10, 15, and 30 min, quenched with 100 μL of cold MeOH containing 2 μM internal standard (d 5-7-ethoxy coumarin), and centrifuged at 12,000 RCF for 5 min. The supernatants were then transferred to LC-MS vials for analysis. The average of each duplicate was normalized to the 0 min time point, representing 100% remaining (0% metabolism).

[2] = system: Caco-2 cell total membrane; assay: Drug in Caco-2 total membrane fraction versus CM fraction; format: in vitro ADME, human
Excerpt: Having completed this initial prodrug screening, we next sought to evaluate their ability to incorporate into CMs in vitro. For a lysoglycerolipid prodrug (e.g., TXL and BCV) to be packaged into CMs, it must first be transported into intestinal enterocytes, like Caco-2 cells, by intercalating into the outer leaflet of the plasma membrane before flipping (either actively or passively) to the inner leaflet. Subsequent membrane desorption facilitates intraenterocyte diffusion to the ER and Golgi, where CM are produced. Accordingly, we hypothesized that, even though high lipophilicity should drive prodrug association with CMs, these low hydrophilicity compounds first need to get through the plasma membrane, which could create a kinetic barrier to CM incorporation. […] Proceeding with the CM production and isolation assay as described (Scheme ), cells were harvested in parallel, and the total membrane fraction was separated from other cellular components via centrifugation through a specialized filter provided with the Minute Plasma Membrane Protein Isolation and Cell Fractionation Kit from Invent Biotechnologies (cat No. SM-005). […]
Total membrane fractionation was performed using a Minute Plasma Membrane Protein Isolation and Cell Fractionation Kit from Invent Biotechnologies (cat No. SM-005). […] The clear supernatant was collected and analyzed using LC-MS/MS.

[3] = Cytotoxicity, MTT assay; conditions: human, TZM-bl cells
[4] = parameters: method as in Hostetler 2007; conditions: single oral dose, prodrug in lung and liver over 72 h; ref Hostetler 2007; cited from earlier work
[5] = Metabolic stability in mouse liver microsomes; format: in vitro ADME; conditions: pH 7.4, read-out: Metabolic Stability MLM t1/2
[6] = Mouse oral PK and tissue distribution, fed state; format: in vivo; conditions: single oral dose 10 mg/kg, fed mice
Excerpt: Given the increased packaging of the CF3-modified lipids into CMs compared to their ω-unmodified congeners, we selected these compounds for PK studies in mice. We hypothesized that, following oral administration, our modified prodrugs would favor CM-mediated transport into the lymphatics over absorption into mesenteric veins feeding into the portal system. By circumventing direct transport to the liver, these prodrugs are expected to achieve elevated levels in the lung relative to the liver, as lymph empties into the jugular venous angle and mixes with blood en route to the pulmonary arteries (Figure ). For all mouse PK experiments, prodrugs were formulated in a 9:1 mixture of olive oil and ethanol, then administered to male C57BL/6 mice via oral gavage at a dose of 10 mg/kg. Organs (liver, lung, and plasma) were harvested at 1, 2, 4, 8, and 18 h postdose, per the protocol described by our groups previously. Concentrations of prodrug were quantified using LC-MS/MS after tissue homogenization, extraction, and sample preparation.
The compounds TXL, 15a, 15b, 21a, 21b, and a vehicle control were prepared at a concentration of 1 mg/mL in a 90:10 solution of olive oil (Sigma-Aldrich, cat. No. O1514) and 190-proof ethanol. The dosing for each mouse was calculated based on individual body weights to achieve a final dose of 10 mg/kg. For example, a 20 g mouse would receive 200 μL of the 1 mg/mL drug formulation, while a 25 g mouse would receive 250 μL.
In accordance with the American Chemical Society Guidelines to Publication of Chemical Research, we affirm the use of standard ethical practices when housing and handling research animals, as ensured by the Emory University’s Institutional Animal Care and Use Committee (IACUC) and the Division of Animal Resources (DAR) through a rigorous protocol review, amendment, and approval process. A total of 220 C57BL6/J male mice (aged 11–12 weeks, weight, 22–30 g) were used for these studies. Each mouse was weighed, recorded, and ear-clipped for identification. The dosing for each mouse was calculated based on individual body weights to achieve a final dose of 10 mg/kg. Animals were anesthetized using isoflurane gas before receiving a single dose of drug prepared as described above using a 22-gauge gavage needle attached to a calibrated syringe.
Time points for tissue collection were 1, 2, 4, 8, and 18 h for unfasted mice, and 1, 2, 4, 8, and 24 h for fasted mice. At each time point, the mice (n = 4 per compound per time point) were anesthetized using isoflurane and subjected to cardiac puncture for blood collection into EDTA-coated tubes. The collected blood samples were immediately placed on ice before the mice were humanely euthanized via cervical dislocation. Brain, liver, lungs, and kidneys were harvested, rinsed in PBS, and placed in prelabeled tubes. Tissues were flash-frozen in liquid nitrogen then transferred to dry ice for storage.
Blood samples were collected into EDTA-coated tubes and centrifuged at 400 RCF for 10 min at 4 °C to separate plasma from the cellular components. The plasma layer was carefully pipetted off and stored in separate prelabeled and preweighed tubes. All tissues were stored at −80 °C until time for processing.
Tissues were weighed (∼50 mg) into homogenization tubes and ACN containing a 10 μM ITSD was added to achieve a final solvent-to-tissue ratio of 4:1. Homogenization beads were added, and the tissues were processed (Biotage Lysera, part no. 19–060) using two 20 s pulses with a 10 s interval period. Homogenate was centrifuged at maximum speed for 1 h, supernatant collected and analyzed via LC-MS using the method described previously. For plasma samples, a 50 μL aliquot was added 200 μL of ACN containing ITSD. The mixture was vortexed thoroughly and then centrifuged to precipitate proteins, with the supernatant collected and analyzed via LC-MS. […]

[7] = Cytotoxicity, ATP luminescence (Cell Titer Glow) assay; conditions: human, TZM-bl cells
[8] = parent Cidofovir; ref Hostetler 2007; cited from earlier work
[9] = ref Hostetler 2007; cited from earlier work

Q: For `CCCCCCCCCCCCCCCCCCOC[C@H](COP(=O)(O)CO[C@H](C)Cn1cnc2c(N)ncnc21)OCc1ccccc1` [8d, Ammonium[(1R)-2-(6-aminopurin-9-yl)-1-methyl-ethoxy]methyl-[(2R)-2-benzyloxy-3-octadecoxy-propoxy]phosphinate], which half-life at 3 µM [1] is on record?
A: Its half-life at 3 µM is over 2 h.

Q: And the “membrane concentration compared with TXL” value ([2]; 8 h, n = 3)?
A: Its value is “significantly greater concentrations in the membrane than TXL”.

Q: What about the “drug in membrane fraction” value ([2]; 20 h) of the same compound?
A: The value was “undetectable”.

Q: What about the CC50 at 48 h [3] of the same compound?
A: Its CC50 at 48 h is over 10 µM.

Q: Which “lung/liver AUC0–72h” value [4] does the source give for `CCCCCCCCCCCCCCCCOCCCOP(=O)(O)CO[C@H](CO)Cn1ccc(N)nc1=O` [BCV, brincidofovir] here?
A: Its value is 0.04.

Q: Which half-life at 3 µM [1] does the source give for `C[C@H](Cn1cnc2c(N)ncnc21)OCP(=O)(O)OCCCOCCCCCCCCCCCCCCCCCC(F)(F)F` [15b, Ammonium[(1R)-2-(6-aminopurin-9-yl)-1-methyl-ethoxy]methyl-[3-(18,18,18-trifluorooctadecoxy)propoxy]phosphinate] here?
A: The half-life at 3 µM was over 2 h.

Q: What about the half-life at 3 µM [5] of the same compound?
A: Its half-life at 3 µM is 1.52 h.

Q: And the Tmax ([6]; male, C57BL/6, mouse, liver, read-out: Liver Tmax)?
A: The Tmax was 4 h.

Q: What about the Tmax ([6]; male, C57BL/6, mouse, lung, read-out: Lung Tmax) of the same compound?
A: The Tmax was 8 h.

Q: And the Cmax ([6]; male, C57BL/6, mouse, plasma)?
A: Its Cmax is 102 ng/mL.

Q: And the AUC(0-t) ([6]; male, C57BL/6, mouse, plasma, read-out: Plasma AUC0-18h)?
A: The AUC(0-t) was 1010 ng·h/mL.

Q: And the Tmax ([6]; male, C57BL/6, mouse, plasma, read-out: Plasma Tmax)?
A: Its Tmax is 4 h.

Q: What about the “Liver AUC0-18h” value [6] of the same compound?
A: Its value is 133,000 h*ng/g.

Q: What about the “Liver Cmax” value [6] of the same compound?
A: Its value is 13,400 ng/g.

Q: And the “Lung AUC0-18h” value [6]?
A: Its value is 7,120 h*ng/g.

Q: And the “Lung Cmax” value [6]?
A: Its value is 585 ng/g.

Q: What about the CC50 at 48 h [7] of the same compound?
A: Its CC50 at 48 h is over 1 µM.

Q: With `CCCCCCCCCCCCCCCCCCOCC(COP(=O)(O)COC(CO)Cn1ccc(N)nc1=O)OCc1ccccc1` (centres unmarked) [ODBG-CDV, 1-O-octadecyl-2-O-benzyl-sn-glycero-3-cidofovir] as the compound, how does the “lung/liver AUC0–72h” value [4] read?
A: The value was 2.05.

Q: What about the “Δ Oral Availability (% versus Parent)” value [8] of the same compound?
A: The value was 32%.

Q: What about the “increase in lung delivery compared to liver” value [9] of the same compound?
A: The value was 13-fold increase in lung delivery compared to liver.
